Reference: patent US10227323B2, “Glucosylceramide synthase inhibitors for the treatment of diseases” (BIOMARIN PHARMACEUTICAL INC., priority 2013, dated 2019)
Where two headings read alike, the source gives them in different places.

Biological target: T1, GCS (Canis lupus familiaris, UniProt A0A8I3MXG6)
T1 sequence (A0A8I3MXG6 1-394): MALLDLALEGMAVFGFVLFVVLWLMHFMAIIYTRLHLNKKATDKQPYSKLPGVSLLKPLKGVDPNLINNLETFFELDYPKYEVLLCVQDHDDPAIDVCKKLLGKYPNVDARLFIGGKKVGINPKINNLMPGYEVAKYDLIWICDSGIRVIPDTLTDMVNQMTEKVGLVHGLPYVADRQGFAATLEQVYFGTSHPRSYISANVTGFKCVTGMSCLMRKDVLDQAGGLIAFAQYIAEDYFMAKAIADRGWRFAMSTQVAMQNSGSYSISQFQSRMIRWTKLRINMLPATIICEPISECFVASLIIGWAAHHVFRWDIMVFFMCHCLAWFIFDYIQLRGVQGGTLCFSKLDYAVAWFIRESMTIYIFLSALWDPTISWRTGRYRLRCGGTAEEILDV
Test: Assay 1: GCS Enzymatic Assay (MDCK cell lysate, C6-NBD-Ceramide, LC/MS)
Assay type: biochemical, canine
Settings: for IC50: read-out: IC50 (nM) generated from Assay 1
Description: This assay was modified based on the study by Larsen et al. (J. Lipid Res. 2011, 53, 282). Madin-Darby canine kidney (MDCK) cell lysate was prepared using M-PER Mammalian Protein Extraction Reagent (Thermal Scientific) in the presence of a protease inhibitor cocktail (Roche). Protein concentration was determined using BCA assay kit (Pierce). Sixty micrograms of MDCK cell lysate was incubated with various concentrations of a compound described herein from 0.001 μM-10 μM, respectively, in 100 mM Tris buffer (pH 7.5) containing 10 mM MgCl2, 1 mM dithiothreitol, 1 mM EGTA, 2 mM NAD, 100 μM UDP-glucose, 10 μM C6-NBD-Ceramide (Matreya LLC, Pleasant Gap, Pa.), 35 μM dioleoylphosphatidylcholine and 5 μM sulfatide (Sigma) in a final reaction volume of 100 μL at 37° C. for 1 hour. 0.1% DMSO was used as mock treatment or control. The reaction was terminated by adding 100 μL acetonitrile solution and subjected to LC/MS analysis.
The quantitative analysis of NBD-Ceramide and glucosylceramide was performed on a Shimadzu ultra-fast liquid chromatography (Shimadzu, Japan) coupled with API 4000 triple quadrupole mass spectrometer (Applied Biosystems, Concord, Ontario, Canada). Sample separation was conducted on a Waters Xbridge™ BEH130 C18, 100 mm×4.6 mm i.d, 3.5 μm (Milford, Mass., USA). The mobile phase consisted of water and acetonitrile supplemented with 0.1% formic acid (v/v). The flow rate was 1.0 mL/min. The initial mobile phase was 20% acetonitrile and was ramped in a linear fashion to 50% acetonitrile in 0.4 min. From 0.4 to 1.5 min, the gradient was ramped to 98% acetonitrile, and then was held at […] until 8.0 min. Acetonitrile was reset to 20% in 1.5 min, and maintained until 10.0 min. The total run time was 10.0 min. The MS/MS detection was performed in ESI positive mode. The mass transition of NBD-Ceramide was m/z 576.36→558.40 under the collision energy of 15 V, and the mass transition of glucosylceramide was m/z 738.35→558.40 under 21V collision energy. The cell lysate was diluted with equal volume of acetonitrile. Aliquots of 50 μL diluted samples were added to 1.5 mL tubes, and 100 μL of acetonitrile containing internal standard (100 ng/mL tolbutamide) were added for protein precipitation. The mixture were vortexed and then centrifuged at 13000 rpm for 10 min. 70 μL of supernatant were mixed with 140 μL of H2O and the final solution were injected for LC/MS/MS analysis and IC50's and/or percent inhibitions calculated.

[1] = Table 1, values marked *, MDCK cell lysate

SMILES	IC50 (Table 1, MDCK cell lysate) [nM]	% inhibition generated from Assay 1 [1]	also measured
O=C(N[C@H](CN1CCCC1)[C@H](O)c1ccc(OC2CCOC2)c(Cl)c1)C(F)(F)c1cc2cc(Cl)ccc2o1 (single isomer, unassigned) [Compound 47]	< 50	–	–
CC(C)Oc1ccc(C(O)[C@@H](CN2CCCC2)NC(=O)C(F)(F)c2cc3cc(Cl)ccc3o2)cn1 (stereo in doubt) [Compound 80, 2-(5-chlorobenzofuran-2-yl)-2,2-difluoro-N-((1S,2R)-1-hydroxy-1-(6-isopropoxypyridin-3-yl)-3-(pyrrolidin-1-yl)propan-2-yl)acetamide]	–	–	IC50 (Table 2, data without asterisk): 50 to 5000 nM
CC(C)Oc1cc(C(O)[C@@H](CN2CCCC2)NC(=O)C(F)(F)c2cc3cc(Cl)ccc3o2)ccn1 (stereo in doubt) [Compound 103, 2-(5-chlorobenzofuran-2-yl)-2,2-difluoro-N-((1S,2R)-1-hydroxy-1-(2-isopropoxypyridin-4-yl)-3-(pyrrolidin-1-yl)propan-2-yl)acetamide]	–	–	% inhibition generated from Assay 1 (Table 2, data marked by *): B* (the compound had a % inhibition of greater than or equal to about 3% but less than about 50%)
O=C(N[C@H](CN1CCC1)C(O)c1cc(F)c2c(c1)OCCO2)C(F)(F)CCc1ccc2ccccc2c1 (stereo in doubt) [Compound 113, N-((1S,2R)-3-(azetidin-1-yl)-1-(8-fluoro-2,3-dihydrobenzo[b][1,4]dioxin-6-yl)-1-hydroxypropan-2-yl)-2,2-difluoro-4-(naphthalen-2-yl)butanamide]	–	–	% inhibition generated from Assay 1 (Table 2, data marked by *): B* (the compound had a % inhibition of greater than or equal to about 3% but less than about 50%)
CC1(C)CCc2cc(C(O)[C@@H](CN3CCCC3)NC(=O)C(F)(F)CCc3ccc4ccccc4c3)ccc2O1 (stereo in doubt) [Compound 117, N-((1S,2R)-1-(2,2-dimethylchroman-6-yl)-1-hydroxy-3-(pyrrolidin-1-yl)propan-2-yl)-2,2-difluoro-4-(naphthalen-2-yl)butanamide]	–	–	% inhibition generated from Assay 1 (Table 2, data marked by *): B* (the compound had a % inhibition of greater than or equal to about 3% but less than about 50%)
O=C(N[C@H](CN1CCCC1)C(O)c1ccc(N2CCOCC2)c(Cl)c1)C(F)(F)CCc1ccc2ccccc2c1 (stereo in doubt) [Compound 124, N-((1S,2R)-1-(3-chloro-4-morpholinophenyl)-1-hydroxy-3-(pyrrolidin-1-yl)propan-2-yl)-2,2-difluoro-4-(naphthalen-2-yl)butanamide]	–	–	% inhibition generated from Assay 1 (Table 2, data marked by *): B* (the compound had a % inhibition of greater than or equal to about 3% but less than about 50%)
O=C(N[C@H](CN1CCCC1)[C@H](O)c1ccc2c(c1)OCCO2)C(F)(F)C1Cc2ccccc2C1 [Compound 1, 2-(2,3-dihydro-1H-inden-2-yl)-N-((1R,2R)-1-(2,3-dihydrobenzo[b][1,4]dioxin-6-yl)-1-hydroxy-3-(pyrrolidin-1-yl)propan-2-yl)-2,2-difluoroacetamide]	< 50	–	–
O=C(N[C@H](CN1CCCC1)[C@H](O)c1ccc2c(c1)OCCO2)C(F)(F)c1ccc2c(c1)OCCO2 [Compound 2, 2-(2,3-dihydrobenzo[b][1,4]dioxin-6-yl)-N-((1R,2R)-1-(2,3-dihydrobenzo[b][1,4]dioxin-6-yl)-1-hydroxy-3-(pyrrolidin-1-yl)propan-2-yl)-2,2-difluoroacetamide]	50 to 5000	–	–
O=C(N[C@H](CN1CCCC1)[C@H](O)c1ccc2c(c1)OCCO2)C(F)(F)c1cc2cc(Cl)ccc2s1 [Compound 3, 2-(5-chlorobenzo[b]thiophen-2-yl)-N-((1R,2R)-1-(2,3-dihydrobenzo[b][1,4]dioxin-6-yl)-1-hydroxy-3-(pyrrolidin-1-yl)propan-2-yl)-2,2-difluoroacetamide]	< 50	–	–
COc1ccc(C(O)[C@@H](CN2CCCC2)NC(=O)C(F)(F)c2cc3cc(Cl)ccc3s2)cc1F (stereo partly drawn) [Compound 4, 2-(5-chlorobenzo[b]thiophen-2-yl)-2,2-difluoro-N-((2R)-1-(3-fluoro-4-methoxyphenyl)-1-hydroxy-3-(pyrrolidin-1-yl)propan-2-yl)acetamide]	–	B* (the compound had a % inhibition of greater than or equal to about 3% but less than about 50%)	–
COc1ccc([C@H](O)[C@@H](CN2CCCC2)NC(=O)C(F)(F)C2Cc3ccccc3C2)cc1F [Compound 5, 2-(2,3-dihydro-1H-inden-2-yl)-2,2-difluoro-N-((1S,2R)-1-(3-fluoro-4-methoxyphenyl)-1-hydroxy-3-(pyrrolidin-1-yl)propan-2-yl)acetamide]	< 50	–	–
COc1ccc(C(O)[C@@H](CN2CCCC2)NC(=O)C(F)(F)C2Cc3ccccc3C2)cc1F (stereo partly drawn) [Compound 5A, 2-(2,3-dihydro-1H-inden-2-yl)-2,2-difluoro-N-((2R)-1-(3-fluoro-4-methoxyphenyl)-1-hydroxy-3-(pyrrolidin-1-yl)propan-2-yl)acetamide]	50 to 5000	–	–
COc1ccc([C@@H](O)[C@@H](CN2CCCC2)NC(=O)C(F)(F)C2Cc3ccccc3C2)cc1F [Compound 5B, 2-(2,3-dihydro-1H-inden-2-yl)-2,2-difluoro-N-((1R,2R)-1-(3-fluoro-4-methoxyphenyl)-1-hydroxy-3-(pyrrolidin-1-yl)propan-2-yl)acetamide]	–	B* (the compound had a % inhibition of greater than or equal to about 3% but less than about 50%)	–
O=C(N[C@H](CN1CCCC1)[C@H](O)c1ccc2c(c1)OCCO2)C(F)(F)c1nc2cc(Cl)ccc2s1 [Compound 6, 2-(5-chlorobenzo[d]thiazol-2-yl)-N-((1R,2R)-1-(2,3-dihydrobenzo[b][1,4]dioxin-6-yl)-1-hydroxy-3-(pyrrolidin-1-yl)propan-2-yl)-2,2-difluoroacetamide]	–	B* (the compound had a % inhibition of greater than or equal to about 3% but less than about 50%)	–
O=C(N[C@H](CN1CCCC1)[C@H](O)c1ccc2c(c1)OCCO2)C(F)(F)C1Cc2cc(Cl)c(Cl)cc2C1 [Compound 7, 2-(5,6-dichloro-2,3-dihydro-1H-inden-2-yl)-N-((1R,2R)-1-(2,3-dihydrobenzo[b][1,4]dioxin-6-yl)-1-hydroxy-3-(pyrrolidin-1-yl)propan-2-yl)-2,2-difluoroacetamide]	< 50	–	–
COc1ccc(F)c([C@@H](O)[C@@H](CN2CCCC2)NC(=O)C(F)(F)C2Cc3ccccc3C2)c1 [Compound 8, 2-(2,3-dihydro-1H-inden-2-yl)-2,2-difluoro-N-((1R,2R)-1-(2-fluoro-5-methoxyphenyl)-1-hydroxy-3-(pyrrolidin-1-yl)propan-2-yl)acetamide]	–	B* (the compound had a % inhibition of greater than or equal to about 3% but less than about 50%)	–
COc1ccc(F)c([C@H](O)[C@@H](CN2CCCC2)NC(=O)C(F)(F)C2Cc3ccccc3C2)c1 [Compound 8J, 2-(2,3-dihydro-1H-inden-2-yl)-2,2-difluoro-N-((1S,2R)-1-(2-fluoro-5-methoxyphenyl)-1-hydroxy-3-(pyrrolidin-1-yl)propan-2-yl)acetamide]	–	B* (the compound had a % inhibition of greater than or equal to about 3% but less than about 50%)	–
Cn1c(C(F)(F)C(=O)N[C@H](CN2CCCC2)[C@H](O)c2ccc3c(c2)OCCO3)nc2cc(Cl)ccc21 [Compound 10, 2-(5-chloro-1-methyl-1H-benzo[d]imidazol-2-yl)-N-((1R,2R)-1-(2,3-dihydrobenzo[b][1,4]dioxin-6-yl)-1-hydroxy-3-(pyrrolidin-1-yl)propan-2-yl)-2,2-difluoroacetamide]	–	B* (the compound had a % inhibition of greater than or equal to about 3% but less than about 50%)	–
